Assay [1] addresses T1, human α1G T-type channels (Homo sapiens, UniProt O43497).
T1 construct: expressed in transfected cells; host or cells: HEK 293
The assay can be described thus: T-type calcium channel block, whole cell patch clamp in HEK cells (α1G). Type of assay: cell-based. The conditions noted are these: HEK cells, patch clamp, mainly non-inactivated protocol; values above 10 μM shown as 10 μM, below 0.30 μM shown as 0.30 μM; read-out: T-type Calcium Channel Block α1G IC50.

Assay [2] concerns the target T2, human α1H T-type channels (Homo sapiens, UniProt O95180).
T2 construct: expressed in transfected cells; host or cells: HEK 293
The experiment in a line: T-type calcium channel block, whole cell patch clamp in HEK cells (α1H). The class given is cell-based. The conditions noted are these: HEK cells, patch clamp, mainly non-inactivated protocol; values above 10 μM shown as 10 μM; read-out: T-type Calcium Channel Block α1H IC50. For orientation: Patch clamp records ionic current or voltage across a cell membrane.

As usually defined, the IC50 is the midpoint of a concentration-inhibition curve.

T2 sequence (O95180 whole entry): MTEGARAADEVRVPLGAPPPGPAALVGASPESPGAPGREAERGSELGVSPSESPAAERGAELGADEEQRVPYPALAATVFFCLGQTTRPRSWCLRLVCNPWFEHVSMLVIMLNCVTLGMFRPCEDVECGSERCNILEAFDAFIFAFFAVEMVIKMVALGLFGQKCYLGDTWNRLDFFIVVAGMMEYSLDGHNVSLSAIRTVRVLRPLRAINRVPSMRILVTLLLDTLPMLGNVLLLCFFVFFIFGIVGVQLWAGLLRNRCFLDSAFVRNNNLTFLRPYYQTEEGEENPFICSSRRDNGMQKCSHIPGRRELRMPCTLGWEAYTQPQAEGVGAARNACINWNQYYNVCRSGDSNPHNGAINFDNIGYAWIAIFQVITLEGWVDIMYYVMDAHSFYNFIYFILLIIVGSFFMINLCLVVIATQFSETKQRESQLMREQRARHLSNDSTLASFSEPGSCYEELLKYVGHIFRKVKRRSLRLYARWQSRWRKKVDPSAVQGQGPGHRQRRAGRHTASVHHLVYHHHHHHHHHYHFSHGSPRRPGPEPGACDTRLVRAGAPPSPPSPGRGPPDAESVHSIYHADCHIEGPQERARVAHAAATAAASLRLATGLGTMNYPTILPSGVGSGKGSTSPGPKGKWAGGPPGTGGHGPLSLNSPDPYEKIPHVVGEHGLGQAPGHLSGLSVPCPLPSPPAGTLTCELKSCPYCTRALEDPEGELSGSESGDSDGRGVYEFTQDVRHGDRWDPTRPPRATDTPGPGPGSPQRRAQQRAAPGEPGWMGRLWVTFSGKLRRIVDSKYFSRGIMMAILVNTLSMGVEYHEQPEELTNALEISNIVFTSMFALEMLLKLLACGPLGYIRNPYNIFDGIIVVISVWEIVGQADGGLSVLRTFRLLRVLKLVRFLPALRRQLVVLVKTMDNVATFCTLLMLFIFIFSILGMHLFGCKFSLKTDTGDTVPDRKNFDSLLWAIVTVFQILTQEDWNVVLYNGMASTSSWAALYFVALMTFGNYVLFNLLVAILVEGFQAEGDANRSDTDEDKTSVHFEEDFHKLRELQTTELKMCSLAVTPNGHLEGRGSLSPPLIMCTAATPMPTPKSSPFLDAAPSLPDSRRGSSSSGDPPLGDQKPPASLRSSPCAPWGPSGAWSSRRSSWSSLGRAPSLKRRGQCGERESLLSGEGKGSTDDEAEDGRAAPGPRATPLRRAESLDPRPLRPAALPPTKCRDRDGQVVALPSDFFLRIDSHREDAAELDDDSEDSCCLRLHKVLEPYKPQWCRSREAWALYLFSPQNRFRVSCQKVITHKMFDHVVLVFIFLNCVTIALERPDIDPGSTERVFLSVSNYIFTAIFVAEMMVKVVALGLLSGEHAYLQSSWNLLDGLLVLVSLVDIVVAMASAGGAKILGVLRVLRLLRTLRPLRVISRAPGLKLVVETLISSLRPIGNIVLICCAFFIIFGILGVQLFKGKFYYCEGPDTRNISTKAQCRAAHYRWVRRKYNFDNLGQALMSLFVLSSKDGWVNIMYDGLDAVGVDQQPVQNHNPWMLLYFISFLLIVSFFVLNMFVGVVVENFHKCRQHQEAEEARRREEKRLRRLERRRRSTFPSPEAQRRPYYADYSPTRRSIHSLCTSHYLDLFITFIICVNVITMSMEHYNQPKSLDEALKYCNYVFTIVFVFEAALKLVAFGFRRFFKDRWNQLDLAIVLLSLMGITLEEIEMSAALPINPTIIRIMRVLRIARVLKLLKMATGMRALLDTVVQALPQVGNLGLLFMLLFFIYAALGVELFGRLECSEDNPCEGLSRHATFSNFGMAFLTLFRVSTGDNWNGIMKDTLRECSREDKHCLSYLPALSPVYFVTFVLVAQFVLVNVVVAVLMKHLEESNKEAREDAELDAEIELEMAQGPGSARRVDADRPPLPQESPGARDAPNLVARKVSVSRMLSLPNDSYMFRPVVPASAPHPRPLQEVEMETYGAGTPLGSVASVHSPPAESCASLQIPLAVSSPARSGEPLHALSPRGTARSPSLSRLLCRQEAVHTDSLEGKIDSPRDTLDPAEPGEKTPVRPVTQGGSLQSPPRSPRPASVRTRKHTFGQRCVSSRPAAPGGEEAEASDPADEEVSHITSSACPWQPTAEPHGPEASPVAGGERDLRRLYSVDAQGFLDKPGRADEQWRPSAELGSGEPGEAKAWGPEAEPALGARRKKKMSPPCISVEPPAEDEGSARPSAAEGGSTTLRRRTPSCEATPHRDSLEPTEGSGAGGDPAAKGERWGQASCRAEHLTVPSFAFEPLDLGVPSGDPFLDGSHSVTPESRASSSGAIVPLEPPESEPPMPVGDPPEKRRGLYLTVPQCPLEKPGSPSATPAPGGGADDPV
T1 sequence (O43497 whole entry): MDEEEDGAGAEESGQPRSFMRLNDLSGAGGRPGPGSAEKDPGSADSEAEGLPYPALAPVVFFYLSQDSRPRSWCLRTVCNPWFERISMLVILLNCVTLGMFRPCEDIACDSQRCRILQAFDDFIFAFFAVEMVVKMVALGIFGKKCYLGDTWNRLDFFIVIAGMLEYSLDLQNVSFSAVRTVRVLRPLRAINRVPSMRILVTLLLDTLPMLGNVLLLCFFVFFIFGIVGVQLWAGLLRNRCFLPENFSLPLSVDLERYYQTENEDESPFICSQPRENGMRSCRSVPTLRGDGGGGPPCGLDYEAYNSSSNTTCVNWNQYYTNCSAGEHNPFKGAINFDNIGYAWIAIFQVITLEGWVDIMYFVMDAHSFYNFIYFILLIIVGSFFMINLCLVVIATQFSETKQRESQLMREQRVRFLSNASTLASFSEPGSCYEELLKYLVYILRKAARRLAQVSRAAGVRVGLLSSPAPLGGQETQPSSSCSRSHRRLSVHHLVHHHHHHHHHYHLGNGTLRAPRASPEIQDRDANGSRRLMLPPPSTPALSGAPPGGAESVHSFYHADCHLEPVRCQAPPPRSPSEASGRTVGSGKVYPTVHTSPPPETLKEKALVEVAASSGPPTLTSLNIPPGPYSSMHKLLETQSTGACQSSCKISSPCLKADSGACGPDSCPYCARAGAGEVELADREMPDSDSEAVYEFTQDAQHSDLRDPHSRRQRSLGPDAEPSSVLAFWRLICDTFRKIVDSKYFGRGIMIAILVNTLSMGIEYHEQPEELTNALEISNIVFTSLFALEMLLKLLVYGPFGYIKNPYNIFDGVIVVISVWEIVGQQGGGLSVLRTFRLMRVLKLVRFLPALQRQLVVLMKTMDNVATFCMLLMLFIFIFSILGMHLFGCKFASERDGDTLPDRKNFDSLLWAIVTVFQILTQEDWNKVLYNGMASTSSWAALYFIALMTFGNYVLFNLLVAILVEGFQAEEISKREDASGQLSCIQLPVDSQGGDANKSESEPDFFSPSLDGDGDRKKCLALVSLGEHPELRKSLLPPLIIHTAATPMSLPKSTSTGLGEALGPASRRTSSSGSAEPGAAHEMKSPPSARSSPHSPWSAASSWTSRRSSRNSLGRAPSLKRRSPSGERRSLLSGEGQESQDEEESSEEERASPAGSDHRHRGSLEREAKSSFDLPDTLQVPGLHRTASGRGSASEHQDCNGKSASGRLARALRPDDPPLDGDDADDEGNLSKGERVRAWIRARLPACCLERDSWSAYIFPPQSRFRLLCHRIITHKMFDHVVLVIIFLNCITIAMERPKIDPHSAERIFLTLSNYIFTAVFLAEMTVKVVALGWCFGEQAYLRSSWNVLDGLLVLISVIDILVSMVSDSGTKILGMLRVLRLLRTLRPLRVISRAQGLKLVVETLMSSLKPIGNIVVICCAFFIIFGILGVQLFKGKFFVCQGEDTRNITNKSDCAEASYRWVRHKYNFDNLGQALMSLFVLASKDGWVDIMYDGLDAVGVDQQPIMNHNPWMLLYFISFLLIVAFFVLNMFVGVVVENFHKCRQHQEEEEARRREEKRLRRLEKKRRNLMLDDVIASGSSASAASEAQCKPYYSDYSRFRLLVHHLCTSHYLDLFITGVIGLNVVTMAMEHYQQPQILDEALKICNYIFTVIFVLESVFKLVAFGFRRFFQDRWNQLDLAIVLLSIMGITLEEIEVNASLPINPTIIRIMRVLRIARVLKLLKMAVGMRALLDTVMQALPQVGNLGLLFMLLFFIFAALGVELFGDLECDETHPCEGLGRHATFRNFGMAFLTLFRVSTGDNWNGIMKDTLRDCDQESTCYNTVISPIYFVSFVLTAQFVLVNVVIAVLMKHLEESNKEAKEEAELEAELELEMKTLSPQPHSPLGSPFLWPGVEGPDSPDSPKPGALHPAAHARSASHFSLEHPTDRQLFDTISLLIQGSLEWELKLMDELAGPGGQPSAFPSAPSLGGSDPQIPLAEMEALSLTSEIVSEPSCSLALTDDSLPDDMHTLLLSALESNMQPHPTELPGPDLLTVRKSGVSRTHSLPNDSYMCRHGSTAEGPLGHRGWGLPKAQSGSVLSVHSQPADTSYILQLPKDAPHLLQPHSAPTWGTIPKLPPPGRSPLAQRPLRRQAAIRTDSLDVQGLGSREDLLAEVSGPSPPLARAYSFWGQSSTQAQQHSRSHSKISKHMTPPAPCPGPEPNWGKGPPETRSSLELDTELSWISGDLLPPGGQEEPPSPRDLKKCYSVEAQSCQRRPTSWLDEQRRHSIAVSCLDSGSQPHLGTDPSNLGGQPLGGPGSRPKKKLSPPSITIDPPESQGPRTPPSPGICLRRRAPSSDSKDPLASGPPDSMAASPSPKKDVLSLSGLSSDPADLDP

For the molecule `CN(CCN1CCC(CNC(=O)c2cc(F)cc(C(F)(F)F)c2)CC1)C(=O)C1(C(F)(F)F)CCCC1` [Compound 522, 3-fluoro-N-((1-(2-(N-methyl-1-(trifluoromethyl)cyclopentanecarbox-amido)ethyl)piperidin-4-yl)methyl)-5-(trifluoromethyl)benzamide], the IC50 in assay [1] was less than 300 nM; in assay [2], 140 nM.

Take `CC(C)(NC(=O)CN1CCC(CNC(=O)c2cccc(C(F)(F)F)c2)CC1)C(F)(F)F` [Compound 458, N-((1-(2-oxo-2-(1,1,1-trifluoro-2-methylpropan-2-ylamino)ethyl)piperidin-4-yl)methyl)-3-(trifluoromethyl)benzamide]: the IC50 in assay [1] is less than 300 nM; in assay [2] it was 40 nM.

As to `O=C(NC1CCCCC1)OCCN1CCC(CNC(=O)c2cc(F)cc(C(F)(F)F)c2)CC1` [Compound 530, 2-(4-((3-fluoro-5-(trifluoromethyl)benzamido)methyl)piperidin-1-yl)ethyl cyclohexylcarbamate], the IC50 in assay [1] amounted to 590 nM; in assay [2], 860 nM.

Turning to `CC(C)(C)OC(=O)NC(CN1CCC(CC(=O)NCCc2c[nH]c3ccc(F)cc23)CC1)C(C)(C)C` (stereo not shown) [Compound 196, tert-butyl 1-(4-(2-(2-(5-fluoro-1H-indol-3-yl)ethylamino)-2-oxoethyl)piperidin-1-yl)-3,3-dimethylbutan-2-ylcarbamate], the IC50 in assay [1] and in assay [2] was greater than 10000 nM each time.

With `COc1cc(F)cc(C(=O)NCC2CCN(CCNS(=O)(=O)C(F)(F)F)CC2)c1` [Compound 325, 3-fluoro-5-methoy-N-((1-(2-(trifluoromethylsulfonamido)ethyl)piperidin-4-yl)methyl)benzamide], the IC50 in assay [1] amounted to 6580 nM; in assay [2], 3390 nM.

`C[C@H]1CC[C@H](NCC(=O)N2CCC(CNC(=O)c3cc(C(F)(F)F)cc(C(F)(F)F)c3)CC2)CC1` [Compound 264, N-((1-(2-((1r,4r)-4-methylcyclohexylamino)acetyl)piperidin-4-yl)methyl)-3,5-bis(trifluoromethyl)benzamide]: the IC50 in assay [1] was less than 300 nM; in assay [2], 530 nM.

As for `COc1cc(F)cc(C(=O)NCC2CCN(CCNS(=O)(=O)C3CC3)CC2)c1` [Compound 321, N-((1-(2-(cyclopropanesulfonamido)ethyl)piperidin-4-yl)methyl)-3-fluoro-5-methoxybenzamide], the IC50 in assay [1] is 1330 nM; in assay [2] it was 1920 nM.

Regarding `COc1cc(OC)cc(C(=O)NCC2CCN(CCNS(=O)(=O)C(C)(C)C)CC2)c1` [Compound 576, N-((1-(2-(1,1-dimethyethylsulfonamido)ethyl)piperidin-4-yl)methyl)-3,5-dimethoxybenzamide], the IC50 stood at 430 nM in assay [1] and 930 nM in assay [2].

In the case of `O=C(NCC1CCN(CCNS(=O)(=O)C2CC2)CC1)c1cc(C(F)(F)F)cc(C(F)(F)F)c1` [Compound 19, N-((1-(2-(cyclopropanesulfonamido)ethyl)piperidin-4-yl)methyl)-3,5-bis(trifluoromethyl)benzamide], the IC50 in assay [1] amounted to 1740 nM; in assay [2], 740 nM.

As for `CCC1CCCCN1CC(=O)N1CCC(CNC(=O)c2cc(C(F)(F)F)cc(C(F)(F)F)c2)CC1` (stereo not shown) [Compound 243, N-((1-(2-(2-ethylpiperidin-1-yl)acetyl)piperidin-4-yl)methyl)-3,5-bis(trifluoromethyl)benzamide], the IC50 was 530 nM in assay [1] and 810 nM in assay [2].

For `C[C@H]1CC[C@H](NCC(=O)N2CCC(CNC(=O)c3cc(F)cc(C(F)(F)F)c3)CC2)CC1` [Compound 291, 3-fluoro-N-((1-(2-((1r,4r)-4-methylcyclohexylamino)acetyl)piperidin-4-yl)methyl)-5-(trifluoromethyl)benzamide], the figures for the IC50 in assay [1] and in assay [2] were less than 300 nM and 510 nM, respectively.

For the molecule `CCCNC(=O)CN1CCC(CNC(=O)c2cccc(OC(F)(F)F)c2)CC1` [Compound 453, N-((1-(2-oxo-2-(proyplamino)ethyl)piperidin-4-yl)methyl)-3-(trifluoromethoxy)benzamide], the IC50 in assay [1] was 8240 nM; in assay [2], greater than 10000 nM.

Consider `CN(CCN1CCC(CNC(=O)c2cc(F)cc(C(F)(F)F)c2)CC1)C(=O)NC(C)(C)C` [Compound 523, N-((1-(2-(3-tert-butyl-1-methylureido)ethyl)piperidin-4-yl)methyl)-3-fluoro-5-(trifluoromethyl) benzamide], for which the results for the IC50 in assay [1] and in assay [2] were 5740 nM and 910 nM, respectively.

In the case of `O=C(NCC1CCN(CCNS(=O)(=O)C2CC2)CC1)c1ccc(OC(F)(F)F)cc1` [Compound 232, N-((1-(2-(cyclopropanesulfonamido)ethyl)piperidin-4-yl)methyl)-4-(trifluoromethoxy)benzamide], the IC50 is 5010 nM in assay [1] and 2870 nM in assay [2].

With `CC(C(=O)N1CCSC1)N1CCC(CNC(=O)c2cc(F)cc(Cl)c2)CC1` (stereo not shown) [Compound 559, 3-chloro-5-fluoro-N-((1-(1-oxo-1-(thiazolidin-3-yl)propan-2-yl)piperidin-4-yl)methyl)benzamide], the IC50 in assay [1] is 9060 nM; in assay [2], greater than 10000 nM.

Take `CN(CCN1CCC(CNC(=O)c2cc(F)cc(C(F)(F)F)c2)CC1)C(=O)C1(C(F)(F)F)CC1` [Compound 520, 3-fluoro-N-((1-(2-(N-methyl-1-(trifluoromethyl)cyclopropanecarbox-amido)ethyl)piperidin-4-yl)methyl)-5-(trifluoromethyl)benzamide]: the IC50 in assay [1] was less than 300 nM; in assay [2] it was 190 nM.

With `CC1CCCCC1NCC(=O)N1CCC(CNC(=O)c2cc(C(F)(F)F)cc(C(F)(F)F)c2)CC1` (stereo not shown) [Compound 248, N-((1-(2-(2-methylcyclohexylamino)acetyl)piperidin-4-yl)methyl)-3,5-bis(trifluoromethyl)benzamide], the IC50 is less than 300 nM in assay [1] and 480 nM in assay [2].

Consider `COc1cc(Cl)cc(C(=O)NCC2CCN(CCNS(=O)(=O)C3CC3)CC2)c1` [Compound 322, 3-chloro-N-((1-(2-(cyclopropanesulfonamido)ethyl)piperidin-4-yl)methyl)-5-methoxybenzamide], for which the IC50 in assay [1] was 4050 nM; in assay [2], 2140 nM.

`CCCNC(=O)N(C)CCN1CCC(CNC(=O)c2cc(F)cc(C(F)(F)F)c2)CC1` [Compound 526, 3-fluoro-N-((1-(2-(1-methyl-3-propylureido)ethyl)piperidin-4-yl)methyl)-5-(trifluoromethyl)benzamide]: the IC50 is greater than 10000 nM in assay [1] and 3240 nM in assay [2].

For `CC(C)NC(=O)CN1CCC(CNC(=O)c2cccc(C(F)(F)F)c2)CC1` [Compound 440, N-((1-(2-(isopropylamino)-2-oxoethyl)piperidin-4-yl)methyl)-3-(trifluoromethyl)benzamide], the half-inhibitory concentration (IC50) in assay [1] and in assay [2] was greater than 10000 nM throughout.

On to `CS(=O)(=O)NC1(CN2CCC(CNC(=O)c3cc(C(F)(F)F)cc(C(F)(F)F)c3)CC2)CC1` [Compound 357, N-((1-((1-(methylsulfonamido)cyclopropyl)methyl)piperidin-4-yl)methyl)-3,5-bis(trifluoromethyl)benzamide], for which the IC50 was 2150 nM in assay [1] and 1270 nM in assay [2].

In the case of `CC(C)(C)OC(=O)NCCN1CCC(CNC(=O)c2cc(Cl)cc(Cl)c2)CC1` [Compound 43, tert-butyl 2-(4-((3,5-dichlorobenzamido)methyl)piperidin-1-yl)ethylcarbamate], the IC50 is less than 300 nM in assay [1] and 150 nM in assay [2].

Take `CC1(NC(=O)CN2CCC(CNC(=O)c3cccc(OC(F)(F)F)c3)CC2)CCC1` [Compound 483, N-((1-(2-(1-methylcyclobutylamino)-2-oxoethyl)piperidin-4-yl)methyl)-3-(trifluoromethoxy)benzamide]: the IC50 in assay [1] was less than 300 nM; in assay [2] it was 110 nM.

As to `COc1cc(OC)cc(C(=O)NCC2CCN(CC(=O)N3CCC[C@H]3C(F)(F)F)CC2)c1` [Compound 466, (S)-3,5-dimethoxy-N-((1-(2-oxo-2-(2-(trifluoromethyl)pyrrolidin-1-yl)ethyl)piperidin-4-yl)methyl)benzamide], the IC50 in assay [1] is less than 300 nM; in assay [2] it was 270 nM.

For `O=C(NCC1CCN(C(=O)CNC2CCCC2)CC1)c1cc(F)cc(C(F)(F)F)c1` [Compound 273, N-((1-(2-(cyclopentylamino)acetyl)piperidin-4-yl)methyl)-3-fluoro-5-(trifluoromethyl)benzamide], the IC50 in assay [1] was found to be 360 nM; in assay [2] it was 1420 nM.

Turning to `CC(C)(C)NC(=O)CN1CCC(CNC(=O)c2ccnc(N3CCCC3)c2)CC1` [Compound 373, N-((1-(2-(tert-butylamino)-2-oxoethyl)piperidin-4-yl)methyl)-2-(pyrrolidin-1-yl)isonicotinamide], the half-inhibitory concentration (IC50) in assay [1] and in assay [2] was greater than 10000 nM in each case.

For `CC(C)S(=O)(=O)NCCN1CCC(CNC(=O)c2cccc(Br)c2)CC1` [Compound 386, 3-bromo-N-((1-(2-(1-methylethylsulfonamido)ethyl)piperidin-4-yl)methyl)benzamide], the values for the IC50 in assay [1] and in assay [2] were 870 nM and 490 nM, respectively.

`Cc1cc(F)cc(C(=O)NCC2CCN(CC(=O)N3CCC[C@@H]3C(F)(F)F)CC2)c1` [Compound 506, (R)-3-fluoro-5-methyl-N-((1-(2-oxo-2-(2-(trifluoromethyl)pyrrolidin-1-yl)ethyl)piperidin-4-yl)methyl) benzamide]: the IC50 in assay [1] is 5360 nM; in assay [2], 1480 nM.

With `Cc1cc(C)cc(C(=O)NCC2CCN(CC(=O)N(C)C(C)(C)C)CC2)c1` [Compound 539, N-((1-(2-(tert-butyl(methyl)amino)-2-oxoethyl)piperidin-4-yl)methyl)-3,5-dimethylbenzamide], the IC50 in assay [1] came out at 1680 nM; in assay [2] it was 510 nM.

The values above are taken from US8569344B2, “N-piperidinyl acetamide derivatives as calcium channel blockers” (Zalicus Pharmaceuticals Ltd., priority 2008, dated 2013).
